Test results as given in ChEMBL document CHEMBL1201862, “PubChem BioAssay data set” (2004).
The source made the active and inactive calls.

Assays:
[1] = molecular target: T1, Calpain-2 catalytic subunit (Sus scrofa, UniProt P43367); test: m-calpain protease blockers, concentration series – biochemical, fluorogenic peptide substrate, dose response (AID 1420); assay type: functional
T1 sequence (P43367 whole entry): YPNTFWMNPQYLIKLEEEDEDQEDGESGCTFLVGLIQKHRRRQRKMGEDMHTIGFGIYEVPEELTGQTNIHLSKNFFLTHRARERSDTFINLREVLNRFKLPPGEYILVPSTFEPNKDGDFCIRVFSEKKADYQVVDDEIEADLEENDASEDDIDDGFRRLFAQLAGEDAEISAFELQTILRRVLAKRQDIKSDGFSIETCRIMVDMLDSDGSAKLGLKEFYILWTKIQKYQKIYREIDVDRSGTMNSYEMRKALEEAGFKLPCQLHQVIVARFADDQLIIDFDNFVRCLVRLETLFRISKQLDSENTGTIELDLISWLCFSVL

[2] = molecular target: Heat shock protein HSP 90-alpha (Homo sapiens, UniProt P07900); assay type: functional, organism-based
[3] = molecular target: T2, Fatty acid synthase (Homo sapiens, UniProt P49327); test: inhibition of human FAS-TE enzyme activity – biochemical, endpoint fluorescence intensity, uHTS hits, dose response (AID 624327); assay type: functional;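 further: fluorescence from hydrolysis of an O-methyl fluorescein acyl ester substrate by the enzyme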
[4] = molecular target: T2, Fatty acid synthase; test: inhibition of human FAS-TE enzyme activity – biochemical, kinetic fluorescence intensity, dose response (AID 624326); assay type: functional;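 further: rate of fluorescence rise from hydrolysis of a fluorogenic O-methyl fluorescein ester substrate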
[5] = molecular target: T3, Histone-lysine N-methyltransferase NSD2 (Homo sapiens, UniProt O96028); assay type: biochemical
T3 sequence (O96028 whole entry): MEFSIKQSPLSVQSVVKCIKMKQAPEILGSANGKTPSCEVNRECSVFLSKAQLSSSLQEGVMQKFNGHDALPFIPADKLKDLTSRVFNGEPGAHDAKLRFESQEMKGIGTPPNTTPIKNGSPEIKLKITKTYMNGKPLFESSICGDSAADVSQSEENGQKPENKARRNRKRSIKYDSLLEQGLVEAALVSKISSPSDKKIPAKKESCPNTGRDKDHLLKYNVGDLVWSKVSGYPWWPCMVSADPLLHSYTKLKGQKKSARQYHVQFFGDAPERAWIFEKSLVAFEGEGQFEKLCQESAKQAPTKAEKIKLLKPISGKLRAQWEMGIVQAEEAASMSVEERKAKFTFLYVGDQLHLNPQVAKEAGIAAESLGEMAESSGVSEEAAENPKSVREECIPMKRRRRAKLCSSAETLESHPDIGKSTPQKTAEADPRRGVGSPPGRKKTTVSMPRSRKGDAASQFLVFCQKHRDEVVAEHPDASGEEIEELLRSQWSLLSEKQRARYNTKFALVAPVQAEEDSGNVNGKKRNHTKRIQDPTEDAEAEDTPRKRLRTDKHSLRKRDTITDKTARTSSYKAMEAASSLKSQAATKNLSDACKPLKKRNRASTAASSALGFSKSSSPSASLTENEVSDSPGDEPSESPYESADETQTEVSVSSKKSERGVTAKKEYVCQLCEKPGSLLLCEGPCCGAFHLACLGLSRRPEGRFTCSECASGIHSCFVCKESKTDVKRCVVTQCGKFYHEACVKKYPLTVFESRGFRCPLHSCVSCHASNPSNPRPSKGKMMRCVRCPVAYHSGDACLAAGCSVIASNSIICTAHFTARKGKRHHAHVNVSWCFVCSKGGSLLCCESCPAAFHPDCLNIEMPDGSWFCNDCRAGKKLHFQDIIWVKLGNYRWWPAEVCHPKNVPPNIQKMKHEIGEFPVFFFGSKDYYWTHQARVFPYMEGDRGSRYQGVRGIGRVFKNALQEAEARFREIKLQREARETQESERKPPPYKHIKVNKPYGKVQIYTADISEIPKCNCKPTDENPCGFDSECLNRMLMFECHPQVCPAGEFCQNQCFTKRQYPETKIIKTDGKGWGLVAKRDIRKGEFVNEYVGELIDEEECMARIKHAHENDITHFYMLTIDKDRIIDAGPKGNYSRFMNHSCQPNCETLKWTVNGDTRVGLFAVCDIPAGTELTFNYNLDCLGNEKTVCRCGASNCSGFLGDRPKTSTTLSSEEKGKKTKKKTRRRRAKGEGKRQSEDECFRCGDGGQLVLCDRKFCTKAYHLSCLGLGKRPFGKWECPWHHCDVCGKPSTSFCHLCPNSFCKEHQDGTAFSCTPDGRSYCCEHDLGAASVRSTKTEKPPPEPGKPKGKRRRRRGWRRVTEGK

[6] = molecular target: T4, Aminopeptidase N (Plasmodium falciparum FcB1/Columbia, UniProt O96935); test: malaria alanyl aminopeptidase activity blockers – biochemical, fluorogenic H-Leu-NHMec substrate, 1536-well (AID 1445); design: species or system Plasmodium falciparum 3D7, 3D7
T4 sequence (O96935 whole entry): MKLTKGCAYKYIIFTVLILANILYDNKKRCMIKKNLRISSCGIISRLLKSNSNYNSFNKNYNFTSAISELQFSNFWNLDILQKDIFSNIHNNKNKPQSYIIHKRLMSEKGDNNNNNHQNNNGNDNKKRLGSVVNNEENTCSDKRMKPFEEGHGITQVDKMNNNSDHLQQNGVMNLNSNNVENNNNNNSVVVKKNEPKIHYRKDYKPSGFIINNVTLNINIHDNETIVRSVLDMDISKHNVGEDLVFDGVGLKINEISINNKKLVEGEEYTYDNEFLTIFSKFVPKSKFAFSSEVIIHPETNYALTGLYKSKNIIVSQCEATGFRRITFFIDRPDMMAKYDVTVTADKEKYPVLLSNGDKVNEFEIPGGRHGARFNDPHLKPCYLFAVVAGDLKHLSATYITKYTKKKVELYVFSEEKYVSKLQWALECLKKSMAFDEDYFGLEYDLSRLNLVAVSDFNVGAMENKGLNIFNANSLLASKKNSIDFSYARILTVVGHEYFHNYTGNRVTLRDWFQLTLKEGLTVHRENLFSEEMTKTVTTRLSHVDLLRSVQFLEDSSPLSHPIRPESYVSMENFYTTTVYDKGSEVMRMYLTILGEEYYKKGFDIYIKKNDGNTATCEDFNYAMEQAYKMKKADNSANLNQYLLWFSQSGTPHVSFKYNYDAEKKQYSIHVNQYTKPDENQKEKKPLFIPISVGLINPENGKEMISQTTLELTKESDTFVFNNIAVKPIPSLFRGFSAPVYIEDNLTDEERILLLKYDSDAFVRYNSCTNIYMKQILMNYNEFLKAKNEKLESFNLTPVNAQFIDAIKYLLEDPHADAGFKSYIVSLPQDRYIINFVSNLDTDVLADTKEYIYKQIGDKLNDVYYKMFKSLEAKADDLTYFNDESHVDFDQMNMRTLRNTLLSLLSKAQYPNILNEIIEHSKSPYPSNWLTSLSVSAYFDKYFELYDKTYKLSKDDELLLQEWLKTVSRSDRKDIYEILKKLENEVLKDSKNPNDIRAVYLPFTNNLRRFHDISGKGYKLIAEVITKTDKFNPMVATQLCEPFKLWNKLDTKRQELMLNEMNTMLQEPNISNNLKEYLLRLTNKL

[7] = molecular target: T5, Long-chain-fatty-acid--AMP ligase FadD28 (Mycobacterium tuberculosis, UniProt P9WQ59); test: Fluorescence polarization aasay to screen for inhibitors that compete for the binding of FadD28 to a bisubstrate Measured in Biochemical System Using Plate Reader - 2147-01_Inhibitor_Dose_CherryPick_Activity.; assay type: functional, Mycobacterium tuberculosis H37Rv
T5 sequence (P9WQ59 whole entry): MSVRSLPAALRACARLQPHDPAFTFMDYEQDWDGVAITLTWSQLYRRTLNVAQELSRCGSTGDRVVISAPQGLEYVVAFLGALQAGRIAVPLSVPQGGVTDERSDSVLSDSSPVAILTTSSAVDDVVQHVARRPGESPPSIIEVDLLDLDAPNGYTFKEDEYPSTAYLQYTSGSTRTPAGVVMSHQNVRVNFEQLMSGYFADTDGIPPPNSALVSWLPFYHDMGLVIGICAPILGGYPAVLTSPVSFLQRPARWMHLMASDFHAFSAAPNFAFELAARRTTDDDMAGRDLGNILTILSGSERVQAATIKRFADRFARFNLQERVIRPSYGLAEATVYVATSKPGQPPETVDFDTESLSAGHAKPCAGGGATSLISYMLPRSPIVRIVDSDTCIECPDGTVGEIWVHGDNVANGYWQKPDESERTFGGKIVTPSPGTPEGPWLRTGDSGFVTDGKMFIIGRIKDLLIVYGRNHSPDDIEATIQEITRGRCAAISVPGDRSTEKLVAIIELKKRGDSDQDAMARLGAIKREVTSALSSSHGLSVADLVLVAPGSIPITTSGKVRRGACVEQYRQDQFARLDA

[8] = microbe, parasite or virus in culture; assay type: functional; settings: Mycobacterium tuberculosis
[9] = viability of PTEN-deleted HCT116 cells – cell-based, HCT116 PTEN knockout, dose response (AID 1047); assay type: functional;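 further: HCT116 colon tumor cells with PTEN knocked out; cells exposed to compound for 60 hours before readout; potency for loss of cell viability measured by luminescence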
[10] = viability of HCT116 lacking mutant beta-catenin – cell-based, human colon tumor, dose response (AID 1045); assay type: functional;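 further: HCT116 colon tumor cells with beta catenin knocked out; cells exposed to compound for 60 hours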

T2 sequence (P49327 whole entry): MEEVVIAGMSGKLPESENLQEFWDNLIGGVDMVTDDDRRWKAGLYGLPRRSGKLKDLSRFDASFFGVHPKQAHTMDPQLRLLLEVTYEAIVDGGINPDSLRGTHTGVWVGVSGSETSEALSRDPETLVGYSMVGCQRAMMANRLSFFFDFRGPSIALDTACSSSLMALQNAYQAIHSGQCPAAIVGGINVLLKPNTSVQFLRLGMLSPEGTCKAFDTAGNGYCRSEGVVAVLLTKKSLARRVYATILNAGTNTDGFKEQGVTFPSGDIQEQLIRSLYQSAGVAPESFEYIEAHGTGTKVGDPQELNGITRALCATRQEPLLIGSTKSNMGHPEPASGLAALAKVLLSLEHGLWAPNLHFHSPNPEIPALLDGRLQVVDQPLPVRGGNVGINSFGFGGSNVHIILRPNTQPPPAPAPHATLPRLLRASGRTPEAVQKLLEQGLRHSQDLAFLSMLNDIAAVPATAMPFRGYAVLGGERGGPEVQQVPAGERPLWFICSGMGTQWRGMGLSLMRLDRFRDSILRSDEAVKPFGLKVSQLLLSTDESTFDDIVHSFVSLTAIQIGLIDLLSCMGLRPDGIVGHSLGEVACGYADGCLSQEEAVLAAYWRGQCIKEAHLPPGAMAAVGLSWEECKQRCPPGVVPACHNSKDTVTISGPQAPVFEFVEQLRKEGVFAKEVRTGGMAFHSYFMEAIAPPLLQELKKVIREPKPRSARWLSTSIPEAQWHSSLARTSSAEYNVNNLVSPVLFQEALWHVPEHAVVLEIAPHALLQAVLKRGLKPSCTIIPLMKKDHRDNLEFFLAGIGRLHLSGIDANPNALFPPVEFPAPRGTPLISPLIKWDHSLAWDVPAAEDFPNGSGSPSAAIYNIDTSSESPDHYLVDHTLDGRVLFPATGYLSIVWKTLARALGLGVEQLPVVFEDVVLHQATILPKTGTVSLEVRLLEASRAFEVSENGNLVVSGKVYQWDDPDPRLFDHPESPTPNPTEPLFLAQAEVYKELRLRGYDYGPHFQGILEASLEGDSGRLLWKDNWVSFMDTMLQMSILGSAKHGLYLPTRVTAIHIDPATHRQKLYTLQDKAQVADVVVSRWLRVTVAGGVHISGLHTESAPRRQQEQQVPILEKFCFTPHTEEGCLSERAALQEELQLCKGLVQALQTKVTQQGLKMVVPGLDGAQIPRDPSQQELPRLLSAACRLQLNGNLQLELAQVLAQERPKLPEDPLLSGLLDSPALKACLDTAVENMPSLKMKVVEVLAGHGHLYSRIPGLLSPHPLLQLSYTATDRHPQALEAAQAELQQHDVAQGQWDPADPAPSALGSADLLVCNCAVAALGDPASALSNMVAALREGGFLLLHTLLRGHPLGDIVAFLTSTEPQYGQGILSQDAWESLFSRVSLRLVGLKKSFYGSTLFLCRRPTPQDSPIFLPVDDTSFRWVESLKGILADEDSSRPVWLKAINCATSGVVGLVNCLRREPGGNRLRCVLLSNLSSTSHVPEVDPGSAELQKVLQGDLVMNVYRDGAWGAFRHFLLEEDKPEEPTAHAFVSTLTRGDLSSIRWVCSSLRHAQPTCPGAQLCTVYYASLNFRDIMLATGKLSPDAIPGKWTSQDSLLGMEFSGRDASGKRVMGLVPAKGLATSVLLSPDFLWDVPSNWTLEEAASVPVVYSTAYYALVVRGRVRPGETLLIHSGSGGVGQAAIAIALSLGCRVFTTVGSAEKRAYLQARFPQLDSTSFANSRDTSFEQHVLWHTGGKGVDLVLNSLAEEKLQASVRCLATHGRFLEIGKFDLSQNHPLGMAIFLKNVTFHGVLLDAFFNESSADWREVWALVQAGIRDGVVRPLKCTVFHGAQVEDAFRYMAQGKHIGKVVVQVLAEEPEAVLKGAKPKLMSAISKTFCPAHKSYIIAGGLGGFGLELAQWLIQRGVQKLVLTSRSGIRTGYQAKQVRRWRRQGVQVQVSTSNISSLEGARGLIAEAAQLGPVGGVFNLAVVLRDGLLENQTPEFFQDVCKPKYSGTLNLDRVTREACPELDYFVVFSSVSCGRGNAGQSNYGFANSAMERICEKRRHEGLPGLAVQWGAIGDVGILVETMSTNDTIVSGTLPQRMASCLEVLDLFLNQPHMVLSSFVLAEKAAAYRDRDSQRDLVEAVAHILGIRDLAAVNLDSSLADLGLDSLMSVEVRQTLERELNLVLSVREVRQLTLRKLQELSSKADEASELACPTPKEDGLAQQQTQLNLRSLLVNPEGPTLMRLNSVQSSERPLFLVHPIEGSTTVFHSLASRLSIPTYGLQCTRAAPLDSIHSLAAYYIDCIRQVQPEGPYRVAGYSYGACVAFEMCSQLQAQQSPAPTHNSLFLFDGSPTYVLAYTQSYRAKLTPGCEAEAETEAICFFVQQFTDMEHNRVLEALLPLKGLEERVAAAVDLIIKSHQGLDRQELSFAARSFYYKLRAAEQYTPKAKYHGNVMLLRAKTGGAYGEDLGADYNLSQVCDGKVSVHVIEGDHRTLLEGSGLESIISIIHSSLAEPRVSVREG

O=C1NC(=S)S/C1=C\c1cc2ccccc2nc1N1CCCCC1
IC50 [1]: 1.63 µM (not active) | AC50 [2]: 3.98 µM (active) | IC50 [3]: 46 µM (inactive) | IC50 [4]: 11.2 µM (active) | AC50 [5]: 11.1 µM (active)

C/C(NNC(=O)c1ccccc1O)=C1/C(=O)NC(=O)N(Cc2ccccc2)C1=O
IC50 [6]: 19.2 µM (active) | AC50 [7]: 20.4 µM (active)

COc1cc(/C=C2\SC(=O)N(CC(=O)Nc3cccc(C)c3)C2=O)ccc1OC(C)C(=O)O (configuration not stated)
AC50 [7]: 0.583 µM (active)

CCCCCn1c(CN2CCN(c3cccc(Cl)c3)CC2)nc2c1c(=O)[nH]c(=O)n2C
CC50 [8]: > 40 µM (active)

Cn1cc(/C=N/NC(=O)COc2ccccc2[N+](=O)[O-])c2ccccc21
AC50 [7]: > 100 µM (inactive)

N#C/C(=N\Nc1ccc([N+](=O)[O-])cc1)C(N)=S
AC50 [7]: 19.5 µM (active)

CCN(c1ccc(NC(=O)CSc2ccc3c(c2)OCCO3)cc1)C(C)C
AC50 [7]: 20.3 µM (active)

Cc1cc(C(=O)CCl)c(C)n1-c1cccc([N+](=O)[O-])c1
CC50 [8]: 13.5 µM (active)

Cc1oc(-c2cccc(Cl)c2)nc1CN1CCC(C(=O)N2CCN(c3ccccc3F)CC2)CC1
CC50 [8]: 28.9 µM (active) | EC50 [9]: 15.5 µM (active) | EC50 [10]: 14.5 µM (active)

CCn1cc(CN2CCC(C(=O)Nc3ccc(Oc4cccnc4)cc3)CC2)c(C)n1
AC50 [7]: 21.7 µM (active)
